Reference: US9334267B2, “RAF inhibitor compounds” (Deciphera Pharmaceuticals, LLC, priority 2012, dated 2016)

Legend:
[1] = tested on: phospho-ERK in A375 (BRAF V600E) xenograft; assay: A375 mouse xenograft pharmacodynamic assay (tumor phospho-ERK by ELISA); format: in vivo; conditions: A375 xenografts in nude female mice, 20 mg/kg oral (gavage), vs vehicle
Method: To evaluate the in vivo pharmacodynamic (PD) effects of compounds of Formula I, an A375 (BRAF V600E) xenograft model is employed. Briefly, 10×10^6 A375 tumor cells (ATCC) are prepared in a 1:1 matrigel mix (0.2 mL total volume) and implanted by subcutaneous injection in hind leg of nude female mice. A total of 4 mice each for each dosing group are employed. Treatment is initiated with oral administration (gavage) of test compound or vehicle (20% captisol, 25 mM phosphate, pH2.0) in 0.2 mL volume when average tumor size reaches approximately 300 mg. After a fixed time interval, the tumors are harvested and the phospho-ERK levels are measured by ELISA (Enzyme-linked immunosorbent assay). Treated groups are compared to the vehicle control group to calculate % inhibition.

[2] = tested on: A375res cells; assay: Proliferation assay in vemurafenib-resistant melanoma cells A375res; conditions: Homo sapiens, 72 h, read-out: absolute IC50 values
[3] = tested on: phospho-ERK in HCT-116 cells; assay: HCT-116 cell pERK assay (AlphaScreen SureFire); format: cell-based; conditions: Homo sapiens, B-Raf wild type, K-Ras mutation, 4 hours, range over the listed examples, read-out: phospho-ERK signal IC50
Method: Examples of Formula I are tested against HCT-116 cells harboring wild type B-Raf and K-Ras mutation. The phospho-ERK activities are evaluated as described below.
HCT-116 cells (catalog #CCL-247) are obtained from the American Type Culture Collection (ATCC, Manassas, Va.). Briefly, cells are grown in McCoy's 5A supplemented with 10% characterized fetal bovine serum (Invitrogen, Carlsbad, Calif.), and 1% Penicillin/Streptomycin/L-Glutamine at 37 degrees Celsius, 5% CO2, and 95% humidity. Cells are allowed to expand until reaching 75-90% confluency at which point they are subcultured or harvested for assay use. HCT-116 cells suspended in complete media are added to 384-well tissue culture treated plates (3×10^5 cells/mL; 7,500 cells per well). The cells are incubated overnight at 37 degrees Celsius, 5% CO2, and 95% humidity. Next, test compound or DMSO diluted in complete media is added to the wells (0.25% final DMSO concentration). The plates are then incubated for 4 hours at 37 degrees Celsius, 5% CO2, and 95% humidity. Following compound incubation, the cells are lysed at 4° C. for 20 minutes with shaking. Cell lysates are centrifuged and the supernatant is transferred to a new plate. An aliquot of each lysate is transferred to a white 384-well assay plate. Using the AlphaScreen SureFire pERK kit (Perkin-Elmer, Waltham, Mass.), an acceptor bead mixture is added to each well and incubated for 2 h at room temperature in the dark. A donor bead mixture is then added to each well and incubated for 2 h at room temperature in the dark. Plates are read using a Synergy2 plate reader (Biotek, Winooski, Vt.) in Plate Mode with Timing Control. Read: (F)1: excitation: 680/30 nm, emission: Plug. 2: Excitation: Plug, emission: 570/100 nm. Top mirror 635 nm. Data is analyzed using Prism software (Graphpad, San Diego, Calif.) to calculate IC50 values and Excel software (Microsoft, Redmond, Wash.) to calculate stimulation compared to control.

[4] = tested on: A375 V600E xenograft tumor; assay: A375 rat xenograft efficacy model; format: in vivo, rats; conditions: orally twice a day at 10 and 20 mg/kg for 21 days
Method: To further evaluate in vivo activity of compounds of Formula I, A375 V600E (ATCC) and HCT-116 K—Ras mutant B-Raf wild type (ATCC) xenograft tumor models are used. Briefly, 10×10^6 cells (A375) or 5×10^6 cells (HCT-116) in a 1:1 medium and matrigel mix (0.2 mL total volume) are implanted by subcutaneous injection in the hind leg of nude female rats (NIH model No. NIHRNU-M from Taconic). A total of 8 rats in each group are used for the efficacy study, and a total of 3-4 rats in each group are used for a pharmacodynamic study. Treatment is initiated with oral administration (gavage) of test compound or vehicle (20% Captisol®, 25 mM phosphate, pH 2.0) in 0.6 mL volume when tumor size reaches approximately 500 mg. Test compound is orally dosed twice a day for 21 days. Tumor growth and body weight are monitored over time to evaluate activity and signs of toxicity. Bidimensional measurements of tumors are performed twice a week and tumor volumes are calculated based on mid-axis length and mid-axis width. Tumor volume data are transformed to a log scale to equalize variance across time and treatment groups. The log volume data are analyzed with a two-way repeated measures analysis of variance by time and treatment using the MIXED® procedures in SAS® software (version 8.2). The correlation model for the repeated measures is spatial power. […]

Structure (SMILES)	Measured pERK inhibition 2 h post dose [1] [% inhibition]	IC50 [2] [µM]	other results
CNc1ncc2cc(-c3cc(NC(=O)NCCC(C)(C)C)c(F)cc3F)c(C)nc2n1 [Example 1, 1-(2,4-Difluoro-5-(7-methyl-2-(methylamino)pyrido[2,3-d]pyrimidin-6-yl)phenyl)-3-(3,3-dimethylbutyl)urea]	54	–	–
CNc1ncc2cc(-c3ccc(F)c(NC(=O)NCCC(C)(C)C)c3)c(C)nc2n1 [Example 2, 1-(3,3-Dimethylbutyl)-3-(2-fluoro-5-(7-methyl-2-(methylamino)pyrido[2,3-d]pyrimidin-6-yl)phenyl)urea]	38	–	–
CNc1ncc2cc(-c3cc(NC(=O)NCCC(C)(C)F)c(F)cc3C)c(C)nc2n1 [Example 4, 1-(3-Fluoro-3-methylbutyl)-3-(2-fluoro-4-methyl-5-(7-methyl-2-(methylamino)pyrido[2,3-d]pyrimidin-6-yl)phenyl)urea]	84	0.015 to 1.1	–
COCCNc1ncc2cc(-c3cc(NC(=O)NCCC(C)(C)C)c(F)cc3C)c(C)nc2n1 [Example 5, 1-(3,3-Dimethylbutyl)-3-(2-fluoro-5-(2-((2-methoxyethyl)amino)-7-methylpyrido[2,3-d]pyrimidin-6-yl)-4-methylphenyl)urea]	77	–	–
CNc1ncc2cc(-c3cc(NC(=O)NCC(O)C(C)(C)C)c(F)cc3C)c(C)nc2n1 (centres unmarked) [Example 15, 1-[2-Fluoro-4-methyl-5-(7-methyl-2-methylamino-pyrido[2,3-d]pyrimidin-6-yl)phenyl]-3-(2-hydroxy-3,3-dimethyl-butyl)urea]	–	0.015 to 1.1	–
Cc1cc(F)c(NC(=O)NCCC(C)(C)C)cc1-c1cc2cnc(NCCO)nc2nc1C [Example 16, 1-(3,3-Dimethylbutyl)-3-[2-fluoro-5-[2-(2-hydroxyethylamino)-7-methyl-pyrido[2,3-d]pyrimidin-6-yl]-4-methyl-phenyl]urea]	–	0.015 to 1.1	–
Cc1cc(F)c(NC(=O)NCCC(C)(C)C)cc1-c1cc2cnc(NCCN(C)C)nc2nc1C [Example 17, 1-[5-[2-(2-Dimethylaminoethylamino)-7-methyl-pyrido[2,3-d]pyrimidin-6-yl]-2-fluoro-4-methyl-phenyl]-3-(3,3-dimethylbutyl)urea]	–	0.015 to 1.1	–
Cc1cc(F)c(NC(=O)NCCC(C)(C)C)cc1-c1cc2cnc(N)nc2nc1C [Example 20, 1-(5-(2-Amino-7-methylpyrido[2,3-d]pyrimidin-6-yl)-2-fluoro-4-methylphenyl)-3-(3,3-dimethylbutyl)urea]	–	0.015 to 1.1	–
Cc1cc(F)c(NC(=O)NCCC(C)(C)C)cc1-c1cc2cnc(NCCN3CCOCC3)nc2nc1C [Example 21, 1-(3,3-Dimethylbutyl)-3-(2-fluoro-4-methyl-5-(7-methyl-2-((2-morpholinoethyl)amino)pyrido[2,3-d]pyrimidin-6-yl)phenyl)ure]	–	0.015 to 1.1	–
CNc1ncc2cc(-c3cc(NC(=O)NCCC4(C)CC4)c(F)cc3C)c(C)nc2n1 [Example 24, 1-(2-Fluoro-4-methyl-5-(7-methyl-2-(methylamino)pyrido[2,3-d]pyrimidin-6-yl)phenyl)-3-(2-(1-methylcyclopropyl)ethyl)urea]	88	0.015 to 1.1	IC50 [3]: 0.002 to 0.472 µM; tumor growth ([4]; both dosing groups): tumor growth inhibition and tumor growth regression; animal body weight ([4]; either group): no animal body weight loss
Cc1cc(F)c(NC(=O)NCCC(C)(C)F)cc1-c1cc2cnc(NC3COC3)nc2nc1C [Example 25, 1-(3-Fluoro-3-methylbutyl)-3-(2-fluoro-4-methyl-5-(7-methyl-2-(oxetan-3-ylamino)pyrido[2,3-d]pyrimidin-6-yl)phenyl)urea]	–	0.015 to 1.1	IC50 [3]: 0.002 to 0.472 µM
CCNc1ncc2cc(-c3cc(NC(=O)NCCC(C)(C)F)c(F)cc3C)c(C)nc2n1 [Example 26, 1-(5-(2-(Ethylamino)-7-methylpyrido[2,3-d]pyrimidin-6-yl)-2-fluoro-4-methylphenyl)-3-(3-fluoro-3-methylbutyl)urea]	–	0.015 to 1.1	–
CNc1ncc2cc(-c3cc(NC(=O)NCCC(C)(C)C(F)(F)F)c(F)cc3C)c(C)nc2n1 [Example 27, 1-(2-Fluoro-4-methyl-5-(7-methyl-2-(methylamino)pyrido[2,3-d]pyrimidin-6-yl)phenyl)-3-(4,4,4-trifluoro-3,3-dimethylbutyl)urea]	–	0.015 to 1.1	–
Cc1cc(F)c(NC(=O)NCCC(C)(C)F)cc1-c1cc2cnc(N)nc2nc1C [Example 28, 1-(5-(2-Amino-7-methylpyrido[2,3-d]pyrimidin-6-yl)-2-fluoro-4-methylphenyl)-3-(3-fluoro-3-methylbutyl)urea]	–	0.015 to 1.1	–
CNc1ncc2cc(-c3cc(NC(=O)NCCC4(C(F)(F)F)CC4)c(F)cc3C)c(C)nc2n1 [Example 30, 1-(2-Fluoro-4-methyl-5-(7-methyl-2-(methylamino)pyrido[2,3-d]pyrimidin-6-yl)phenyl)-3-(2-(1-(trifluoromethyl)cyclopropyl)ethyl)urea]	–	0.015 to 1.1	–
CNc1ncc2cc(-c3cc(NC(=O)NCCC(C)(C)F)c(F)cc3C)cnc2n1 [Example 34, 1-(3-Fluoro-3-methyl-butyl)-3-[2-fluoro-4-methyl-5-(2-methylaminopyrido[2,3-d]pyrimidin-6-yl)phenyl]urea]	72	0.015 to 1.1	–
CNc1ncc2cc(-c3cc(NC(=O)NCCC(C)(C)C)c(F)cc3C)cnc2n1 [Example 35, 1-(3,3-Dimethylbutyl)-3-[2-fluoro-4-methyl-5-(2-methylaminopyrido[2,3-d]pyrimidin-6-yl)phenyl]urea]	79	0.015 to 1.1	IC50 [3]: 0.002 to 0.472 µM
